According to ChEMBL document CHEMBL3085661, “Fragment-based approach to the design of 5-chlorouracil-linked-pyrazolo[1,5-a][1,3,5]triazines as thymidine phosphorylase inhibitors” (Eur J Med Chem, 2013):
Structures can show the parent of a compound that is named as a salt.

Test system: not listed separately
Assay: Cytotoxicity against human MDA-MB-231 cells assessed as cell viability at 100 uM by MTT assay relative to control
Type: cell-based
Details: read-out: Activity

SMILES | viability at 100 µM
O=c1[nH]c(CSc2nc3c(-c4ccc(S(F)(F)(F)(F)F)cc4)cnn3c(=O)[nH]2)c(Cl)c(=O)[nH]1 | 67%

Target: T1, Thymidine phosphorylase (Escherichia coli K-12, UniProt P07650)
T1 sequence (P07650 whole entry): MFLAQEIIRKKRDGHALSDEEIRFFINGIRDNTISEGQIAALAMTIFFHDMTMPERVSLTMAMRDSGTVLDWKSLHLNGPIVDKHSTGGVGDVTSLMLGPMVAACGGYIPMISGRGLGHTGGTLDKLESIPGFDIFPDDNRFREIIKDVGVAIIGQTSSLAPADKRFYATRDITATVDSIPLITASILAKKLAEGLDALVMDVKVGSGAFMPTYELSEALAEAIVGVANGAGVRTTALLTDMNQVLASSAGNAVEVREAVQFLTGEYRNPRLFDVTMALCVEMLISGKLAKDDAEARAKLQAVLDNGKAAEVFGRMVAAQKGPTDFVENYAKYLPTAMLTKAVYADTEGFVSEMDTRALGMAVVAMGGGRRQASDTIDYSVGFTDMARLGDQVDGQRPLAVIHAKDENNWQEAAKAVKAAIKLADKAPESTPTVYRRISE
Assay: Inhibition of Escherichia coli recombinant thymidine phosphorylase using thymidine as substrate after 4 to 20 mins by UV spectrophotometry
Details: not given

IC50 | SMILES
1.8 µM | CC(C)(C)c1ccc(-c2cnn3c(=O)[nH]c(SCc4[nH]c(=O)[nH]c(=O)c4Cl)nc23)cc1
21.3 µM | COc1ccc(-c2cnn3c(=O)[nH]c(SCc4[nH]c(=O)[nH]c(=O)c4Cl)nc23)cc1
12 µM | CCOc1ccc(-c2cnn3c(=O)[nH]c(SCc4[nH]c(=O)[nH]c(=O)c4Cl)nc23)cc1
0.61 µM | O=c1[nH]c(CSc2nc3c(-c4ccc(I)cc4)cnn3c(=O)[nH]2)c(Cl)c(=O)[nH]1
0.36 µM | O=c1[nH]c(CSc2nc3c(-c4ccc(S(F)(F)(F)(F)F)cc4)cnn3c(=O)[nH]2)c(Cl)c(=O)[nH]1
2.1 µM | O=c1[nH]c(CSc2nc3cc(-c4ccc(C(F)(F)F)cc4)nn3c(=O)[nH]2)c(Cl)c(=O)[nH]1
9.8 µM | Cc1ccc(-c2cc3nc(SCc4[nH]c(=O)[nH]c(=O)c4Cl)[nH]c(=O)n3n2)cc1
1.5 µM | CC(C)(C)c1ccc(-c2cc3nc(SCc4[nH]c(=O)[nH]c(=O)c4Cl)[nH]c(=O)n3n2)cc1
11.8 µM | COc1ccc(-c2cc3nc(SCc4[nH]c(=O)[nH]c(=O)c4Cl)[nH]c(=O)n3n2)cc1
10 µM | CCOc1ccc(-c2cc3nc(SCc4[nH]c(=O)[nH]c(=O)c4Cl)[nH]c(=O)n3n2)cc1
13 µM | O=c1[nH]c(CSc2nc3cc(-c4ccccc4)nn3c(=O)[nH]2)c(Cl)c(=O)[nH]1
35.3 µM | Cc1cnn2c(=O)[nH]c(SCc3[nH]c(=O)[nH]c(=O)c3Cl)nc12
49.8 µM | O=c1[nH]c(CSc2nc3c(Cl)cnn3c(=O)[nH]2)c(Cl)c(=O)[nH]1
40 µM | O=c1[nH]c(CSc2nc3c(Br)cnn3c(=O)[nH]2)c(Cl)c(=O)[nH]1
30.8 µM | O=c1[nH]c(CSc2nc3c(I)cnn3c(=O)[nH]2)c(Cl)c(=O)[nH]1
38.8 µM | N#Cc1cnn2c(=O)[nH]c(SCc3[nH]c(=O)[nH]c(=O)c3Cl)nc12
47.2 µM | CCOC(=O)c1cnn2c(=O)[nH]c(SCc3[nH]c(=O)[nH]c(=O)c3Cl)nc12

IC50 | SMILES
9.7 µM | O=c1[nH]c(CSc2nc3c(-c4ccccc4)cnn3c(=O)[nH]2)c(Cl)c(=O)[nH]1
8 µM | O=c1[nH]c(CSc2nc3c(-c4ccc(F)cc4)cnn3c(=O)[nH]2)c(Cl)c(=O)[nH]1
2.8 µM | O=c1[nH]c(CSc2nc3c(-c4ccc(Cl)cc4)cnn3c(=O)[nH]2)c(Cl)c(=O)[nH]1
1.2 µM | O=c1[nH]c(CSc2nc3c(-c4ccc(Br)cc4)cnn3c(=O)[nH]2)c(Cl)c(=O)[nH]1
1.3 µM | O=c1[nH]c(CSc2nc3c(-c4ccc(C(F)(F)F)cc4)cnn3c(=O)[nH]2)c(Cl)c(=O)[nH]1
7.3 µM | Cc1ccc(-c2cnn3c(=O)[nH]c(SCc4[nH]c(=O)[nH]c(=O)c4Cl)nc23)cc1
6.1 µM | CCOc1ccc(-c2cc3[nH]c(=S)[nH]c(=O)n3n2)cc1
> 100 µM | N#Cc1cnn2c(=O)[nH]c(=S)[nH]c12
> 100 µM | CCOC(=O)c1cnn2c(=O)[nH]c(=S)[nH]c12
67.8 µM | O=c1[nH]c(CSc2nc3ccnn3c(=O)[nH]2)c(Cl)c(=O)[nH]1
55.5 µM | Cc1cc2nc(SCc3[nH]c(=O)[nH]c(=O)c3Cl)[nH]c(=O)n2n1
51.2 µM | CC(C)(C)c1cc2nc(SCc3[nH]c(=O)[nH]c(=O)c3Cl)[nH]c(=O)n2n1
31 µM | O=c1[nH]c(CSc2nc3cc(C(F)(F)F)nn3c(=O)[nH]2)c(Cl)c(=O)[nH]1
22.6 µM | O=c1[nH]c(CSc2nc3cc(-c4ccc(F)cc4)nn3c(=O)[nH]2)c(Cl)c(=O)[nH]1
10.3 µM | O=c1[nH]c(CSc2nc3cc(-c4ccc(Cl)cc4)nn3c(=O)[nH]2)c(Cl)c(=O)[nH]1
6.2 µM | O=c1[nH]c(CSc2nc3cc(-c4ccc(Br)cc4)nn3c(=O)[nH]2)c(Cl)c(=O)[nH]1
0.0027 µM | N=C1CCCN1Cc1[nH]c(=O)[nH]c(=O)c1Cl [TIPIRACIL HYDROCHLORIDE]

Target: T1, Thymidine phosphorylase
Assay: Mixed-type inhibition of Escherichia coli recombinant thymidine phosphorylase using thymidine as substrate by Lineweaver-Burk plot analysis
Details: not given

Ki | SMILES
0.44 µM | O=c1[nH]c(CSc2nc3c(-c4ccc(S(F)(F)(F)(F)F)cc4)cnn3c(=O)[nH]2)c(Cl)c(=O)[nH]1

Target: T1, Thymidine phosphorylase
Assay: Noncompetitive inhibition of GST-tagged Escherichia coli recombinant thymidine phosphorylase expressed in Escherichia coli using thymidine as substrate after 20 to 60 mins by HPLC analysis
Details: not given

IC50 | SMILES
44 µM | Oc1ncnc2c1ncn2[C@@H]1O[C@H](COC(c2ccccc2)(c2ccccc2)c2ccccc2)[C@@H](O)[C@H]1O
